# Paper PMC11251039, “Harnessing cholesterol uptake of malaria parasites for therapeutic applications” (EMBO Molecular Medicine, 2024)
# pIC50: −log10 of the molar value. Several values for one entry are separate records, joined by “and”; a condition that tells them apart may be missing. Equal entries are not always repeated. Where two headings read alike, the source gives them in different places.
# Tests used:
# [1] = tested on: asexual P. falciparum 3D7 wild-type parasites; test: P. falciparum asexual growth inhibition assay (SYBR Safe DNA replication); assay type: cell-based, Plasmodium falciparum; settings: for P. falciparum asexual growth, percentage of control: replicate values, source data Fig. 2B, listed as BC9B; for pIC50: Plasmodium falciparum, read-out: IC50, P. falciparum asexual growth inhibition
# Outline: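 Sorbitol-synchronised ring-stage cultures at 1% parasitaemia and 1% haematocrit were exposed to 2-fold compound dilutions at 37 °C under microaerophilic conditions for 24, 48 or 72 h. Growth was read by SYBR Safe fluorescence of freeze-thaw lysates, with 200 nM chloroquine or artesunate defining background.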
# [2] = tested on: Toxoplasma gondii tachyzoites (RH strain); test: Toxoplasma growth inhibition assay (tdTomato fluorescence, in HFF cells); assay type: cell-based; settings: Toxoplasma gondii, HFF, 72 h; read-out: IC50, T. gondii tachyzoite growth inhibition
# Description: Fluorescence was measured daily with a fluorescence microplate reader for one week, and the background fluorescence from the time 0 reading was subtracted from all other measurements. […]
# Toxoplasma Growth Inhibition Assays:
# Growth inhibition was investigated as described previously (26). Fluorescent Toxoplasma gondii parasites were inoculated into an optical bottom 96-well plate containing confluent human foreskin fibroblast (HFF) host cells at a density of 2,000 parasites/well, with a serial dilution of each compound, or culture media/DMSO (0.1% v/v) alone. Plates were measured daily with a FluoStar Optima fluorescence plate reader at 540 nm excitation and 590 nm emission for one week, and the background fluorescence from the time 0 reading was subtracted from all other measurements. […]
# [3] = tested on: P. falciparum stage III–IV gametocytes; test: P. falciparum gametocyte viability assay (MitoTracker, flow cytometry), stage III-IV; assay type: cell-based, Plasmodium falciparum; settings: 48 h; for Gametocyte stage III-IV viability, percentage of control: listed as BC9B
# Description: (§1) Gametocyte assays commenced seven days (stage III–IV) or ten days (stage V) post-invasion. […]
# (§2) Plasmodium falciparum Gametocyte Viability Assays:
# (§3) Asexual P. falciparum parasites were induced to form gametocytes as described (21).
# (§4) Synchronized trophozoite-stage parasites at 2% parasitaemia were incubated overnight and […]
# (§5) haematocrit maintained at 4%. On the subsequent day (designated as day 0) of gametocytogenesis, the culture containing early ring-stage parasites was first purified by sorbitol synchronisation to remove asynchronous trophozoites, and passed through a magnetic field in a sterile MACS® column in a SuperMACSTM II magnet to remove remaining late-stage parasites or later-stage gametocytes (negative selection). The culture medium was supplemented with 50 mM N-acetyl-D-glucosamine to inhibit asexual parasite proliferation, and changed daily. Sorbitol treatment was performed on Day 1, 5, and 6 to further remove asexual parasites. Gametocytes were magnetically enriched (positive selection) in a sterile column with a SuperMACSTM II magnet and eluted in culture media with 50 mM N-acetyl-D-glucosamine. These gametocytes were incubated overnight at 37 °C under microaerophilic conditions, and purity was assessed by examination under a light microscope (400× […]
# (§6) Gametocyte viability was assessed as described by Ridgway et al. (21) with modifications.
# (§7) Compounds or solvent controls (DMSO) were serially diluted across 96-well plates in culture media supplemented with 50 mM N-acetyl-D-glucosamine. Culture media without compound was used as a negative control. […]
# (§8) control to determine background gametocyte fluorescence. Stage III-IV gametocytes (Day 7) or stage V (day 10) gametocytes were concentrated and added to the plate with 200 µL per well. The plate was incubated for 48 hours at 37 °C under humid microaerophilic conditions.
# (§9) Parasites were then stained with 500 nM MitoTrackerTM Deep Red FM and 5 μg/ml Hoechst […]
# (§10) cytometer as described above. […]
# (§11) excluded. Live (positive) and dead (negative) gametocytes were differentiated by […]
# (§12) percentage of each was calculated. […]
# [4] = tested on: P. falciparum stage V gametocytes; test: P. falciparum gametocyte viability assay (MitoTracker, flow cytometry), stage V; assay type: cell-based, Plasmodium falciparum; settings: 48 h; for Gametocyte stage V viability, percentage of control: listed as BC9B
# Description: as §1, §2, §3, §4, §5, §6, §7, §8, §9, §10, §11, §12
smiles,measurement,setting,value
COc1cc(NC(C)CCCNC(=O)CCC(=O)OC(C)C)c2ncccc2c1 (centres unmarked) [PQ-link],"P. falciparum asexual growth, percentage of control","[1]; 0.390625000 uM, 24 h",112.3% and 89.93% and 91.19% and 112.1% and 102.3% and 68.21% and 112.6% and 108.2% and 99.03%
same,"P. falciparum asexual growth, percentage of control","[1]; 0.781250000 uM, 24 h",111.4% and 122.1% and 101.9% and 105.4% and 82.4% and 103% and 111.6% and 99.14% and 89.9%
same,"P. falciparum asexual growth, percentage of control","[1]; 1.562500000 uM, 24 h",124.5% and 109.9% and 95.57% and 96.52% and 118.5% and 100.1% and 113.4% and 107.6% and 105.7%
same,"P. falciparum asexual growth, percentage of control","[1]; 3.125000000 uM, 24 h",111% and 101.9% and 103% and 119.5% and 108.6% and 102.2% and 109.1% and 102.4% and 93.98%
same,"P. falciparum asexual growth, percentage of control","[1]; 6.250000000 uM, 24 h",79.77% and 100.5% and 104.2% and 100.4% and 95.65% and 80.04% and 97.39% and 93.98% and 89.23%
same,"P. falciparum asexual growth, percentage of control","[1]; 12.500000000 uM, 24 h",91.36% and 89.64% and 70.76% and 87.57% and 76.11% and 68.83% and 96.23% and 85.41% and 71.02%
same,"P. falciparum asexual growth, percentage of control","[1]; 25.000000000 uM, 24 h",68.25% and 69.29% and 40.14% and 53.66% and 42.59% and 27.83% and 74.48% and 57.35% and 79.45%
same,"P. falciparum asexual growth, percentage of control","[1]; 50.000000000 uM, 24 h",54.3% and 2.851% and -9.844% and -3.605% and -29.04% and -23.19% and 22.95% and 7.441% and 8.158%
same,pIC50,"[1]; 3D7, 48 h",4.66
same,pIC50,"[1]; 3D7, 72 h",4.79
same,pIC50,"[1]; 3D7, 24 h, starting at ring stages",4.60
same,pIC50,[2],4.57
same,"Gametocyte stage III-IV viability, percentage of control","[3]; 3.125000000 uM, replicate values, source data Fig. 2C, 3.125 µM",95.52% (2×) and 103.7% and 98.94% and 103.3% and 102% and 98.19% and 98.79% and 101.3% and 100.5% and 109.4%
same,"Gametocyte stage III-IV viability, percentage of control","[3]; 6.250000000 uM, replicate values, source data Fig. 2C, 6.25 µM",103.3% and 99.89% and 101.1% and 100.9% and 104.1% and 103.4% and 100.6% and 98.59% and 102.7% and 100.3% and 94.88%
same,"Gametocyte stage III-IV viability, percentage of control","[3]; 12.500000000 uM, replicate values, source data Fig. 2C, 12.5 µM",96% and 94.38% and 101.5% and 100.5% and 100.7% and 100.4% and 98.39% (2×) and 102.7% and 98.65% and 95.96%
same,"Gametocyte stage III-IV viability, percentage of control","[3]; 25.000000000 uM, replicate values, source data Fig. 2C",93.41% and 97.62% and 99.34% and 95.75% and 97.14% and 99.2% and 97.59% and 96.58% and 96.77% and 92.46% and 91.11%
same,"Gametocyte stage III-IV viability, percentage of control","[3]; 50.000000000 uM, replicate values, source data Fig. 2C",83.69% and 82.72% and 92.56% and 88.38% and 90.37% and 90.15% and 87.94% (2×) and 83.57% and 86.8% and 83.3%
same,"Gametocyte stage III-IV viability, percentage of control","[3]; 100.000000000 uM, replicate values, source data Fig. 2C",63.1% and 60.41% and 65.29% and 78% and 74.98% and 78.2% and 65.68% and 65.48% and 64.86% and 59.49% and 56.77% and 63.58%
same,"Gametocyte stage III-IV viability, percentage of control","[3]; 200.000000000 uM, replicate values, source data Fig. 2C",0.3329% and -3.262% and -3.462% and -33.89% and -33.85% and -34.28% and -34.3% and -33.84% and -35.23%
same,viability at 3.125 µM,"[3]; Plasmodium falciparum, 3.125000000 uM, replicate values, source data Fig. 2C, read-out: Gametocyte stage III-IV viability, percentage of control",97.8%
same,viability at 6.25 µM,"[3]; Plasmodium falciparum, 6.250000000 uM, replicate values, source data Fig. 2C, read-out: Gametocyte stage III-IV viability, percentage of control",100%
same,viability at 12.5 µM,"[3]; Plasmodium falciparum, 12.500000000 uM, replicate values, source data Fig. 2C, read-out: Gametocyte stage III-IV viability, percentage of control",94.9%
same,viability at 25 µM,"[3]; Plasmodium falciparum, 25.000000000 uM, replicate values, source data Fig. 2C, read-out: Gametocyte stage III-IV viability, percentage of control",92.1%
same,viability at 50 µM,"[3]; Plasmodium falciparum, 50.000000000 uM, replicate values, source data Fig. 2C, read-out: Gametocyte stage III-IV viability, percentage of control",82.6%
same,pIC50,"[3]; Plasmodium falciparum, read-out: IC50, P. falciparum gametocyte stage III-IV inhibition",3.99
same,"Gametocyte stage V viability, percentage of control","[4]; 50.000000000 uM, replicate values, source data Fig. 2D",66.98% and 63.41% and 52.55% and 74.37% and 69.92% and 70.17%
same,"Gametocyte stage V viability, percentage of control","[4]; 100.000000000 uM, replicate values, source data Fig. 2D",11.39% (2×) and 9.662% and 17.36% and 16.33% and 21.17% and 48.62% and 50.63% and 48.77%
same,"Gametocyte stage V viability, percentage of control","[4]; 200.000000000 uM, replicate values, source data Fig. 2D",-1.011% and -1.165% and -0.9342% and -0.2117% and -0.2822% and -0.3175% and 0.4794% and 0.8647% and 0.8741%
same,viability at 6.25 µM,"[4]; Plasmodium falciparum, 6.250000000 uM, replicate values, source data Fig. 2D, read-out: Gametocyte stage V viability, percentage of control",103%
same,viability at 12.5 µM,"[4]; Plasmodium falciparum, 12.500000000 uM, replicate values, source data Fig. 2D, read-out: Gametocyte stage V viability, percentage of control",104%
same,viability at 25 µM,"[4]; Plasmodium falciparum, 25.000000000 uM, replicate values, source data Fig. 2D, read-out: Gametocyte stage V viability, percentage of control",87.6%
same,pIC50,"[4]; Plasmodium falciparum, read-out: IC50, P. falciparum gametocyte stage V inhibition",4.15
